In patent publication US5446056A, “Isoxazoline compounds useful as fibrinogen receptor antagonists” (The Du Pont Merck Pharmaceutical Company, priority 1994, dated 1995) one finds IC50 data, which are given here for one compound.

This experiment has as its system human platelet rich plasma. Nature of the experiment: Platelet aggregation assay (platelet rich plasma, PRP). To be noted: concentration which inhibits platelet aggregation by 50% relative to control, ester prodrugs preincubated with porcine liver esterase, ADP-induced. In kind it is cell-based. As to the method: Platelet Aggregation Assay: Venous blood was obtained from the arm of a healthy human donor who was drug-free and aspirin-free for at least two weeks prior to blood collection. Blood was collected into 10 mL citrated Vacutainer tubes. The blood was centrifuged for 15 minutes at 150×g at room temperature, and platelet-rich plasma (PRP) was removed. The remaining blood was centrifuged for 15 minutes at 1500×g at room temperature, and platelet-poor plasma (PPP) was removed. Samples were assayed on a aggregometer (PAP-4 Platelet Aggregation Profiler), using PPP as the blank (100% transmittance). 200 μL of PRP was added to each micro test tube, and transmittance was set to 0%. 20 μL of various agonists (ADP, collagen, arachidonate, epinephrine, thrombin) were added to each tube, and the aggregation profiles were plotted (% transmittance versus time). The results are expressed as % inhibition of agonist-induced platelet aggregation. […] Percent inhibition is calculated using percent aggregation in the presence of the test compound divided by percent aggregation of control, times 100. […]
Platelet Aggregation Assay; Venous blood was obtained from the arm of a healthy human donor who was drug-free and aspirin-free for at least two weeks prior to blood collection. […] The results are expressed as % inhibition of agonist-induced platelet aggregation. […]

Molecules are shown by their SMILES. A value given as a limit tells only on which side of the number the result lay.

For the compound `CCNC(=N)c1ccc(C2=NOC(CC(=O)NCCC(=O)O)C2)cc1` (racemic) [Example 23, 5(R,S)-3-[3-(4-N-ethylamidinophenyl)isoxazolin-5-ylacetyl]aminopropanoic acid], the IC50 – broadly, the concentration at which inhibition is half-maximal – was < 10 µM.
